Key:
FLT3-ITD = biological target: T1, FLT3-ITD (Homo sapiens, UniProt P36888); test: ADP Glo kinase assay, FLT3-ITD; assay type: biochemical; details: Km ATP 100 μM, read-out: Enzymatic inhibition, Ki, FLT3-ITD
T1 sequence (P36888 1-993): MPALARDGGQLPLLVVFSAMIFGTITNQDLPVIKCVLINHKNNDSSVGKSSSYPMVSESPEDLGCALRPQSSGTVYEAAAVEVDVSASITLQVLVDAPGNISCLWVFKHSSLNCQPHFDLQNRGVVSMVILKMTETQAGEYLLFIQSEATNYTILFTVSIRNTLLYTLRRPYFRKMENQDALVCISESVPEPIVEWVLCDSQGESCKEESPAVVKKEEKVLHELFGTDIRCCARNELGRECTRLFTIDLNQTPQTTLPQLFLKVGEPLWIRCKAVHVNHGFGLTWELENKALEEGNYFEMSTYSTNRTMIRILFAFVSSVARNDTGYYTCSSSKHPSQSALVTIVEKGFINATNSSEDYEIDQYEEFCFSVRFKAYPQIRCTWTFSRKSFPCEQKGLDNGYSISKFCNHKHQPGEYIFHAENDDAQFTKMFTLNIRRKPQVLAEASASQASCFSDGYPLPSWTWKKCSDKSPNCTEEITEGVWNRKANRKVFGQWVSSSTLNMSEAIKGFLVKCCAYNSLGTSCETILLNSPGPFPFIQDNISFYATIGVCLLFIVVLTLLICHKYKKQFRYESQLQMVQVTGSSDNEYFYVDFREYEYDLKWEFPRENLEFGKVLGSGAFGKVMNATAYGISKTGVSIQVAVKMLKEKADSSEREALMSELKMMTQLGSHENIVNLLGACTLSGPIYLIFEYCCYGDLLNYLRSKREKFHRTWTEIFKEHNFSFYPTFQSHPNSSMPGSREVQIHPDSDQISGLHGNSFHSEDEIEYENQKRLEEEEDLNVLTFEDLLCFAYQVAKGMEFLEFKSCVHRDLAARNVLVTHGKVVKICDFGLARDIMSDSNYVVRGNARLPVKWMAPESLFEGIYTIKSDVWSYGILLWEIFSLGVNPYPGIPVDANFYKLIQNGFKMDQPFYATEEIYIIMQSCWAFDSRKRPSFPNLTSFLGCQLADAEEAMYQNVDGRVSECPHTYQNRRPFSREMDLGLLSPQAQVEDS
How it was run: (§1)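 First, compounds are diluted 1:3 across ten points from 10 to 0.0005 μM in 0.5% DMSO. Next, kinase reactions run at room temperature for an optimised period. Finally, ADP Glo reagent is added to stop them.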

CDK7/CyclinH/Mat1 = CDK7/CyclinH/Mat1 (Homo sapiens, UniProt P50613); test: ADP Glo kinase assay, CDK7/CyclinH/Mat1; assay type: biochemical; details: for remaining activity at 1 µM: compound at 1 μM, read-out: Residual enzymatic activity (%) at 1 μM, CDK7 H; for Ki: Km ATP, read-out: Enzymatic inhibition, Ki, CDK7 H
How it was run: as §1

CDK4/CyclinD1 = CDK4/CyclinD1 (Homo sapiens, UniProt P11802); test: ADP Glo kinase assay, CDK4/CyclinD1; assay type: biochemical; details: for remaining activity at 1 µM: compound at 1 μM, read-out: Residual enzymatic activity (%) at 1 μM, CDK4 D1; for Ki: Km ATP, read-out: Enzymatic inhibition, Ki, CDK4 D1
Experimental: Test compounds are used in 1:3 serial dilutions for 10 concentrations (from 10-0.0005 μM) in 0.5% DMSO. […] The kinase reactions are run for optimised time period at room temperature and then the reaction is stopped by adding 5 μL of ADP Glo reagent.

CDK6/CyclinD3 = CDK6/CyclinD3 (Homo sapiens, UniProt Q00534); test: ADP Glo kinase assay, CDK6/CyclinD3; assay type: biochemical; details: for Ki: Km ATP, read-out: Enzymatic inhibition, Ki, CDK6 D3; for remaining activity at 1 µM: compound at 1 μM, read-out: Residual enzymatic activity (%) at 1 μM, CDK6 D3
How it was run: as §1

CDK9/CyclinT1 = CDK9/CyclinT1 (Homo sapiens, UniProt P50750); test: ADP Glo kinase assay, CDK9/CyclinT1; assay type: biochemical; details: CDK9/CyclinT1; Km ATP; read-out: Enzymatic inhibition, Ki, CDK9 T1
How it was run: as §1

MV-4-11 = test: Proliferation assay (resazurin, leukemia cell lines), MV-4-11; assay type: cell-based; details: Homo sapiens, MV4-11, read-out: 72 h Growth inhibition GI50, MV-4-11 cells
Excerpt: The following compounds were used as comparators.

CDK2/CyclinA2 = CDK2/CyclinA2 (Homo sapiens, UniProt P24941); test: ADP Glo kinase assay, CDK2/CyclinA2; assay type: biochemical; details: for Ki: Km ATP, read-out: Enzymatic inhibition, Ki, CDK2 A; for remaining activity at 1 µM: compound at 1 μM, read-out: Residual enzymatic activity (%) at 1 μM, CDK2 A
How it was run: as §1

CDK1/CyclinB = CDK1/CyclinB (Homo sapiens, UniProt P06493); test: ADP Glo kinase assay, CDK1/CyclinB; assay type: biochemical; details: for Ki: Km ATP, read-out: Enzymatic inhibition, Ki, CDK1 B; for remaining activity at 1 µM: compound at 1 μM, read-out: Residual enzymatic activity (%) at 1 μM, CDK1 B
How it was run: as §1

Sequence of CDK7/CyclinH/Mat1 (P50613 whole entry, species assumed): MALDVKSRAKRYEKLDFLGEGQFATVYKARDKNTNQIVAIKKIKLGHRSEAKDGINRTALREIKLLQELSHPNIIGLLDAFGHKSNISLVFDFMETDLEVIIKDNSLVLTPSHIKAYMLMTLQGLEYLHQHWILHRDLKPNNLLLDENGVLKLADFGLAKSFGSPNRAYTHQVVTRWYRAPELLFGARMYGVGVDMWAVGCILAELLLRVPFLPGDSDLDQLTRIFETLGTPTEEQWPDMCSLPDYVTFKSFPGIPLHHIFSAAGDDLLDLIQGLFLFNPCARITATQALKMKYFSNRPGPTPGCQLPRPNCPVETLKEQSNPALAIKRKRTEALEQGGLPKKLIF
Sequence of CDK7/CyclinH/Mat1 (P51946 whole entry partner, species assumed): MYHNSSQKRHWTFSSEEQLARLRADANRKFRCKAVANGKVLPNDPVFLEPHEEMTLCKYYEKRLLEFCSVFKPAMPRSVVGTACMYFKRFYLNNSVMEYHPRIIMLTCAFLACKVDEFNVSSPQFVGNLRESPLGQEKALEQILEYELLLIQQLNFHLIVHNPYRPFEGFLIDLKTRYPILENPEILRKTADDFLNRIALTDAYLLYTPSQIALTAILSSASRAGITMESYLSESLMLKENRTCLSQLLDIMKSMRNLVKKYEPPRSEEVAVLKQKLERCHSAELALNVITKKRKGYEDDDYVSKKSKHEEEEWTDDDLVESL
Sequence of CDK7/CyclinH/Mat1 (P51948 whole entry partner, species assumed): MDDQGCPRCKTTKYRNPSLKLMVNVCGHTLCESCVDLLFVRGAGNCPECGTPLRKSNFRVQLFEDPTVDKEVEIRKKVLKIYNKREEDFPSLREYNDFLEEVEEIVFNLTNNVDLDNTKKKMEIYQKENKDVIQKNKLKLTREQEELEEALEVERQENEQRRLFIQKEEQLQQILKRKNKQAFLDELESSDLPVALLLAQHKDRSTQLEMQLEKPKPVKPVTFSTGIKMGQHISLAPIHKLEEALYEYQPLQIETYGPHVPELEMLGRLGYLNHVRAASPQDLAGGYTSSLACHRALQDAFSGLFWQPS
Sequence of CDK9/CyclinT1 (P50750 whole entry, species assumed): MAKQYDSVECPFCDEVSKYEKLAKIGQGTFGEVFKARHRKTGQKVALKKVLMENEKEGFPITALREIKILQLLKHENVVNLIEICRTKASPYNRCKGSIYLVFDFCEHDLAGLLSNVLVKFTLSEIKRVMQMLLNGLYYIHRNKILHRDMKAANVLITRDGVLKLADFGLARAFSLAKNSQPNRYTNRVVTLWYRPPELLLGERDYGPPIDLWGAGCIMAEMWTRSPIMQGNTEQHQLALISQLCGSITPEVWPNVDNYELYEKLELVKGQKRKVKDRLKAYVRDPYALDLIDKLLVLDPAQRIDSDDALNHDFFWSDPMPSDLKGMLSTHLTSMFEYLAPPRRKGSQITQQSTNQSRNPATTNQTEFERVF
Sequence of CDK9/CyclinT1 (O60563 whole entry partner, species assumed): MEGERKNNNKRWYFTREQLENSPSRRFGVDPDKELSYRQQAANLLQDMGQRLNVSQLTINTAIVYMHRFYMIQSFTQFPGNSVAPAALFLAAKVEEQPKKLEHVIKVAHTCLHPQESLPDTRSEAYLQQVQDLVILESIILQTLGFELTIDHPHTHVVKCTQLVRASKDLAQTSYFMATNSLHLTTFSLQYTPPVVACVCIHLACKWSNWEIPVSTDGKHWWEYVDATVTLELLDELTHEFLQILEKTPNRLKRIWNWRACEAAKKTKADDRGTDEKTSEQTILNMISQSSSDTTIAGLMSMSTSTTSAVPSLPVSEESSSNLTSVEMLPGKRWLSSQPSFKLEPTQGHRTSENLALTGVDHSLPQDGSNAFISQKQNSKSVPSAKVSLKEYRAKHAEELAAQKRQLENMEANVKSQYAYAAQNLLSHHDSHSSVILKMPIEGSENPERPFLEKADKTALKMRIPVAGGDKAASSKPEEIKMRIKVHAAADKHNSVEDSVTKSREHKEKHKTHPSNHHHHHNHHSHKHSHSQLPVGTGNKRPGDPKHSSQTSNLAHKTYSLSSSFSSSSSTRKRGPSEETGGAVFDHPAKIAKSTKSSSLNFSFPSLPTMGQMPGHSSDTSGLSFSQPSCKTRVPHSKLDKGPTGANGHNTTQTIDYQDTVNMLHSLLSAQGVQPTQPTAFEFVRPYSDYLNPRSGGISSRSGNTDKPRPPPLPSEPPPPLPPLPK
Sequence of CDK1/CyclinB (P06493 whole entry, species assumed): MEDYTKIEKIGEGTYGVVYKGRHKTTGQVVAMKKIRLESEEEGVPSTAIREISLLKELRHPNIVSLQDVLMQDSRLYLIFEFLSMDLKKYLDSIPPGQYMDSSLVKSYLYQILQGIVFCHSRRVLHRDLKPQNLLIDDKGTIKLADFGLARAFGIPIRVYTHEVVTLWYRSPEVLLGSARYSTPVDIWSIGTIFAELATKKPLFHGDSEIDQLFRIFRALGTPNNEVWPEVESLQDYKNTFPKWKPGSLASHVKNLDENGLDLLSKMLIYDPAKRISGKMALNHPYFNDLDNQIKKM
Sequence of CDK1/CyclinB (P14635 whole entry partner, species assumed): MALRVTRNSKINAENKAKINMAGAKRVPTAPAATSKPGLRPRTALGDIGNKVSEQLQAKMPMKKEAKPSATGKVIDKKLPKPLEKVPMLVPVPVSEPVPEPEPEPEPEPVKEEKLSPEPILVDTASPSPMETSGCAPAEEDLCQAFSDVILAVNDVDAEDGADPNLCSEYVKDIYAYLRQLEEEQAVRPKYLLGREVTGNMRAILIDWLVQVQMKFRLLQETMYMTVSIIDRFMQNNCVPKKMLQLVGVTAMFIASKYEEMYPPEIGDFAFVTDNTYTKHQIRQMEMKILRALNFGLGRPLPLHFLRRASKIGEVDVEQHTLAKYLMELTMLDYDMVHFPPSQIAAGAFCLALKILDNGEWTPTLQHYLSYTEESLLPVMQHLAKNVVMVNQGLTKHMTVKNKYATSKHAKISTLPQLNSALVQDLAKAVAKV
Sequence of CDK4/CyclinD1 (P11802 whole entry, species assumed): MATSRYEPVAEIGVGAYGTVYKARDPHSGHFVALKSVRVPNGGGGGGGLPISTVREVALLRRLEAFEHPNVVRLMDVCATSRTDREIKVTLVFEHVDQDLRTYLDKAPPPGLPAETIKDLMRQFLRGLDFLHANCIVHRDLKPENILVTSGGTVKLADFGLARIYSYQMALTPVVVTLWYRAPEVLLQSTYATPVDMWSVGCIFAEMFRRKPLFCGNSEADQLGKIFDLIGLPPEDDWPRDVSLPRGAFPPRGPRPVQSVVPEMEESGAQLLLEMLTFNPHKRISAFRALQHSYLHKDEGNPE
Sequence of CDK4/CyclinD1 (P24385 whole entry partner, species assumed): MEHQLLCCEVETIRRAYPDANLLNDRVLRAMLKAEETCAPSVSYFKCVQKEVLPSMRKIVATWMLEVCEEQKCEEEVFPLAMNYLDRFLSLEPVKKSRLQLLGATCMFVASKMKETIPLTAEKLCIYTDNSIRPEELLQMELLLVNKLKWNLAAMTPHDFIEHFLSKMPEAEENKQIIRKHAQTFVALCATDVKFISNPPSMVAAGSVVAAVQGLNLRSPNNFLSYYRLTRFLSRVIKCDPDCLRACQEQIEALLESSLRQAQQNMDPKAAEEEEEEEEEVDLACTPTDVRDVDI
Sequence of CDK6/CyclinD3 (Q00534 whole entry, species assumed): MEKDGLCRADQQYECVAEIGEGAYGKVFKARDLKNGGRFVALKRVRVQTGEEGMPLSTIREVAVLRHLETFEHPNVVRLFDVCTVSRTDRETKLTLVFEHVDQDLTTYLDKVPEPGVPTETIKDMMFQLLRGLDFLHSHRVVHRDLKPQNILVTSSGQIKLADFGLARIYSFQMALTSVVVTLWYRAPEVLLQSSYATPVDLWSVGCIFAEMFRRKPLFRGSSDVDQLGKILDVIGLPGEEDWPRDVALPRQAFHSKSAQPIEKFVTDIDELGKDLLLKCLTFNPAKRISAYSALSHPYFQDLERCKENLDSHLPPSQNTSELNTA
Sequence of CDK6/CyclinD3 (P30281 whole entry partner, species assumed): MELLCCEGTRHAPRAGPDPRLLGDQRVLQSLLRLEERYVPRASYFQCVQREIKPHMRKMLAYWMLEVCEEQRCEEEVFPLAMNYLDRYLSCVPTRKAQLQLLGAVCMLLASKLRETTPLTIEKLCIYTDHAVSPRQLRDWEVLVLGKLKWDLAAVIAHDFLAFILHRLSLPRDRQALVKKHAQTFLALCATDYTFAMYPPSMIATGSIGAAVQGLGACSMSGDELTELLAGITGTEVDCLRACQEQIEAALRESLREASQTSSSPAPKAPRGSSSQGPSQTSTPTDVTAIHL

Row | SMILES | Ki (FLT3-ITD) | remaining activity at 1 µM (CDK7/CyclinH/Mat1) | remaining activity at 1 µM (CDK4/CyclinD1) | Ki (CDK6/CyclinD3) | Ki (CDK9/CyclinT1) | GI50 (MV-4-11) | Ki (CDK2/CyclinA2) | Ki (CDK1/CyclinB) | Ki (CDK7/CyclinH/Mat1) | Ki (CDK4/CyclinD1) | remaining activity at 1 µM (CDK6/CyclinD3) | remaining activity at 1 µM (CDK2/CyclinA2) | remaining activity at 1 µM (CDK1/CyclinB)
1 | CS(=O)(=O)N1CCN(c2ccc(Nc3nccc(-c4cnc5ccc(-c6ccncc6)cn45)n3)cn2)CC1 [Compound 18, N-(6-(4-(Methylsulfonyl)piperazin-1-yl)pyridin-3-yl)-4-(6-(pyridin-4-yl)imidazo[1,2-a]pyridin-3-yl)pyrimidin-2-amine] | 27 nM | 28% | 47% | > 5000 nM | 21 nM | 1 nM | 557 nM | 450 nM | – | – | – | – | –
2 | CN1CCN(c2ccc(Nc3nccc(-c4cnc5ccc(-c6cncnc6)cn45)n3)cn2)CC1 [Compound 8, N-(6-(4-Methylpiperazin-1-yl)pyridin-3-yl)-4-(6-(pyrimidin-5-yl)imidazo[1,2-a]pyridin-3-yl)pyrimidin-2-amine] | 31 nM | – | – | > 5000 nM | 6 nM | 19 nM | 2860 nM | > 5000 nM | > 5000 nM | > 500 nM | – | – | –
3 | CS(=O)(=O)N1CCN(c2ccc(Nc3nccc(-c4cnc5ccc(-c6ccco6)cn45)n3)cn2)CC1 [Compound 51, 4-(6-(Furan-2-yl)imidazo[1,2-a]pyridin-3-yl)-N-(6-(4-(methylsulfonyl)piperazin-1-yl)pyridin-3-yl)pyrimidin-2-amine] | > 500 nM | 80% | 96% | – | 286 nM | 17 nM | – | – | – | – | 43% | 85% | 77%
4 | CC(=O)N1CCN(c2ccc(Nc3nccc(-c4cnc5ccc(Br)cn45)n3)cn2)CC1 [Compound 44, 1-(4-(5-((4-(6-Bromoimidazo[1,2-a]pyridin-3-yl)pyrimidin-2-yl)amino)pyridin-2-yl)piperazin-1-yl)ethan-1-one] | 137 nM | 77% | 84% | – | 719 nM | 21 nM | – | – | – | – | 55% | 28% | 56%
5 | Fc1cnc(Nc2ccc(N3CCN(CCN4CCOCC4)CC3)nc2)nc1-c1cnc2ccc(-c3ccccc3)cn12 [Compound 30, 5-Fluoro-N-(6-(4-(2-morpholinoethyl)piperazin-1-yl)pyridin-3-yl)-4-(6-phenylimidazo[1,2-a]pyridin-3-yl)pyrimidin-2-amine] | 148 nM | – | 65% | – | 75 nM | 56 nM | 520 nM | – | 223 nM | – | 23% | – | 52%
6 | CN1CCN(Cc2ccc(Nc3nccc(-c4cnc5ccc(Br)cn45)n3)cn2)CC1 [Compound 77, 4-(6-Bromoimidazo[1,2-a]pyridin-3-yl)-N-(6-((4-methylpiperazin-1-yl)methyl)pyridin-3-yl)pyrimidin-2-amine] | 70 nM | 40% | 52% | – | 51 nM | 35 nM | 40 nM | – | – | – | 48% | – | 74%
7 | CN1CCN(c2ccc(Nc3nccc(-c4cnc5ccc(F)cn45)n3)cn2)CC1 [Compound 12, 4-(6-Fluoroimidazo[1,2-a]pyridin-3-yl)-N-(6-(4-methylpiperazin-1-yl)pyridin-3-yl) pyrimidin-2-amine] | 7 nM | – | – | 779 nM | 29 nM | 13 nM | 156 nM | 865 nM | 1720 nM | 380 nM | – | – | –
8 | CN1CCN(c2ccc(Nc3ncc(F)c(-c4cnc5ccc(-c6ccccc6)cn45)n3)cn2)CC1 [Compound 28, 5-Fluoro-N-(6-(4-methylpiperazin-1-yl)pyridin-3-yl)-4-(6-phenylimidazo[1,2-a]pyridin-3-yl)pyrimidin-2-amine] | 65 nM | – | 76% | – | 86 nM | 233 nM | 1120 nM | – | 314 nM | – | 45% | – | 61%
9 | CCN1CCN(Cc2ccc(Nc3nccc(-c4cnc5ccc(Br)cn45)n3)cn2)CC1 [Compound 79, 4-(6-Bromoimidazo[1,2-a]pyridin-3-yl)-N-(6-((4-ethylpiperazin-1-yl)methyl)pyridin-3-yl)pyrimidin-2-amine] | 70 nM | – | 48% | – | 57 nM | 38 nM | 42 nM | – | 168 nM | – | 27% | – | 70%
10 | COc1ccc(-c2ccc3ncc(-c4ccnc(Nc5ccc(N6CCN(C(C)=O)CC6)nc5)n4)n3c2)cn1 [Compound 48, 1-(4-(5-((4-(6-(6-Methoxypyridin-3-yl)imidazo[1,2-a]pyridin-3-yl)pyrimidin-2-yl)amino)pyridin-2-yl)piperazin-1-yl)ethan-1-one] | 86 nM | 75% | 86% | – | 274 nM | 18 nM | – | – | – | – | 30% | 34% | 58%
11 | CC(=O)N1CCN(c2ccc(Nc3nccc(-c4cnc5ccccn45)n3)cn2)CC1 [Compound 41, 1-(4-(5-((4-(Imidazo[1,2-a]pyridin-3-yl)pyrimidin-2-yl)amino)pyridin-2-yl)piperazin-1-yl)ethan-1-one] | 32 nM | 77% | 53% | – | 91 nM | 27 nM | – | – | – | – | 70% | 22% | 31%
12 | O=C(NC1CC1)c1ccc(Nc2ncc(F)c(-c3cnc4ccc(-c5ccccc5)cn34)n2)cn1 [Compound 33, N-Cyclopropyl-5-((5-fluoro-4-(6-phenylimidazo[1,2-a]pyridin-3-yl)pyrimidin-2-yl)amino) picolinamide] | > 1000 nM | 100% | 96% | – | > 500 nM | 296 nM | – | – | – | – | 46% | 83% | 59%
13 | O=C1NCCC12CCN(c1ccc(Nc3nccc(-c4cnc5ccc(-c6cnn(C(F)F)c6)cn45)n3)cn1)CC2 [Compound 73, 8-(5-((4-(6-(1-(Difluoromethyl)-1H-pyrazol-4-yl)imidazo[1,2-a]pyridin-3-yl)pyrimidin-2-yl)amino)pyridin-2-yl)-2,8-diazaspiro[4.5]decan-1-one] | 116 nM | 83% | 82% | – | > 500 nM | 14 nM | – | – | – | – | 97% | 80% | 73%
